Reference: patent US9593096B2, “α7 nicotinic acetylcholine receptor modulators and uses thereof-III” (Merck Sharp & Dohme Corp., priority 2013, dated 2017)

Key:
[1] = target: T1, rat α7 nAChRs (Rattus norvegicus, UniProt Q05941); assay: Automated planar patch clamp (Patchliner) for α7 nAChR positive allosteric modulation; assay type: cell-based; design: key to Type I or Type II: I: Type 1 predominately affects the peak current; Type II modulators affect the peak current and also delay the desensitization of the receptor; settings: for Type I or Type II: modulator type based on the electrophysiology trace; for activation at 3 µM: GH4-C1, 3 μM compound in the presence of acetylcholine, GH4C1 cells expressing rat α7 nAChRs, relative to control ACh response, read-out: Peak potentiation at 3 μM compound
T1 construct: expressed in transfected cells; host or cells: GH4C1 (rat pituitary cell line) stably expressing α7 nAChR
Method: Compounds of the invention may be evaluated by electrophysiology using a Patchliner® (Nanion Technologies GmbH, Germany), an automated planar patch-clamp platform of medium throughput was used as a first step in electrophysiological assessment of α7 nAChR positive allosteric modulators (PAMs).
Briefly, intracellular (KCl—50 mM, NaCl—10 mM, KF—60 mM, EGTA—20 mM, HEPES—10 mM, pH—7.2, 285 mOsmol) and extracellular (NaCl—140 mM, KCl—4 mM, CaCl2-2 mM, MgCl2—1 mM, HEPES—10 mM, D-Glucose—5 mM, pH—7.4, 298 mOsmol) solutions were automatically pipetted onto NPC-16 chip (medium resistance ˜2.5-2.6 MΩ). Suspension of GH4C1 cells expressing rat α7 nAChRs was introduced in 4 wells of a medium resistance chip and suction was applied to attract cells in the holes. The extracellular solution was subsequently exchanged to high calcium solution (NaCl—80 mM, KCl—3 mM, CaCl2—45 mM, HEPES—10 mM, pH—7.4, 298 mOsmol) followed by gigaohm seal formation and obtaining whole-cell configuration. The rest of protocol was carried out in the high-calcium recording solution. Holding potential was −70 mV throughout the protocol. A control response to 60 or 100 μM of ACh was obtained first. Next, a cell was pre-incubated with compound of interest at 3 μM for ˜30 s after which the compound was co-applied with acetylcholine.
Amplitude of the responses was measured in HEKA Patchmaster software (HEKA Elektronik, Germany) and percentage of potentiation calculated. Recording was repeated […] a minimum of two replicates had been obtained per compound.
Compounds shown in Table 1 were evaluated by automated planar patch clamp on the Patchliner® as described in Example P2.1. […] The compounds are designated either as Type I or Type II modulators based on the electrophysiology trace. Type 1 predominately affects the peak current. Type II modulators affect the peak current and also delay the desensitization of the receptor.

[2] = test system: mice; assay: T-maze Continuous Alternation Task (T-CAT), scopolamine-induced cognitive impairment; assay type: in vivo; settings: mouse, dosed orally at 10 mg/kg, scopolamine-induced disruption of spontaneous alternation
Text: The T-maze Continuous Alternation Task (T-CAT) measures spontaneous alternation, which is the innate tendency of mice to alternate free choices in a T-maze over a series of successive runs. This sequential procedure relies on working memory and is sensitive to various pharmacological manipulations affecting memory processes.
The T-maze apparatus is made of gray Plexiglas with a main stem (55 cm long×10 cm wide×25 cm high) and two arms (30 cm long×10 cm wide×25 cm high) positioned at 90 degree angle relative to the main stem. A start box (15 cm long×10 cm wide) is separated from the main stem by a sliding door. Sliding doors are also provided to close specific arms during the forced-choice alternation task.
The experimental protocol consists of one single session, which starts with 1 “forced-choice” trial, followed by 14 “free-choice” trials. In the first “forced-choice” trial, the animal is confined for 5 s in the start arm and then it is released while either the left or right goal arm is blocked by a sliding door. The animal will negotiate the maze, eventually enter the open goal arm, and return to the start position. Immediately after the return to the start position, the left or right goal door is opened and the animal is allowed to choose freely between the left and right goal arm (“free choice” trials). The animal is considered to have entered an arm when it places four paws in the arm. A session is terminated and the animal is removed from the maze as soon as 14 free-choice trials have been performed or 10 minutes have elapsed, whichever event occurs first. The percentage of alternation over the 14 free-choice trials is determined for each mouse and is used as an index of working memory performance. This percentage is defined as entry in a different arm of the T-maze over successive visits (i.e., left-right-left-right, etc).
Scopolamine administered 20 minutes prior the initiation of the T-maze session is used to induce disruption in the spontaneous alternation of mice. Test compounds are administered 60 minutes prior the start of the T-maze session in order to evaluate their ability to reverse the scopolamine effect.
The apparatus is cleaned between each animal using alcohol (70°). Urine and faeces are removed from the maze. During the trials, animal handling and the visibility of the operator are minimized as much as possible.
The compounds were dosed orally at 10 mg/kg.

T1 sequence (Q05941 23-502): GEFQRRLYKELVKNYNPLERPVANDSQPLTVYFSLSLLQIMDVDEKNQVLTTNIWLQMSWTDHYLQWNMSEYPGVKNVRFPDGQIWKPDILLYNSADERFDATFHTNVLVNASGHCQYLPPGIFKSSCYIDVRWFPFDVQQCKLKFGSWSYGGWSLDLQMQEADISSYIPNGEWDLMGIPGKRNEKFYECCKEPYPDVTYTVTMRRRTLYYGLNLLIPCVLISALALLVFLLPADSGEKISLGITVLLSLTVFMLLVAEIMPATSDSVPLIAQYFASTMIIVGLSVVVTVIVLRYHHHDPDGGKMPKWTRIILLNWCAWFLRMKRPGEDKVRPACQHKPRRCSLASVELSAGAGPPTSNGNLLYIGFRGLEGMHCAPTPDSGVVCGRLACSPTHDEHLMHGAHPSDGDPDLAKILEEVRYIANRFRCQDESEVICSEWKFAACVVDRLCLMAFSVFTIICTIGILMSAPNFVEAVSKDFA

| SMILES | Type I or Type II [1] | T-maze % control at 10 mg/kg [2] | activation at 3 µM [1] |
| --- | --- | --- | --- |
| CCn1cc(C(=O)Nc2cc(C(F)(F)F)ncn2)c2cc(F)ccc21 [Example 2, 1-ethyl-5-fluoro-N-[6-(trifluoromethyl)pyrimidin-4-yl]-1H-indole-3-carboxamide] | I | 76% |  |
| Cc1ccc2c(c1)c(C(=O)Nc1cc(C(F)(F)F)ncn1)cn2C [Example 8, 1,5-dimethyl-N-[6-(trifluoromethyl)pyrimidin-4-yl]-1H-indole-3-carboxamide] | I |  | 428% |
| CCn1cc(C(=O)Nc2ccnc(C(F)(F)F)n2)c2cc(F)ccc21 [Example 4, 1-ethyl-5-fluoro-N-[2-(trifluoromethyl)pyrimidin-4-yl]-1H-indole-3-carboxamide] | I |  | 30% |
| CCn1cc(C(=O)Nc2ccc(C(F)(F)F)nc2)c2cc(F)ccc21 [Example 3, 1-ethyl-5-fluoro-N-[6-(trifluoromethyl)pyridin-3-yl]-1H-indole-3-carboxamide] |  | 73% |  |
| Cn1cc(C(=O)Nc2cncc(F)c2)c2cc(C(F)(F)F)ccc21 [Example 10, N-(5-fluoropyridin-3-yl)-1-methyl-5-(trifluoromethyl)-1H-indole-3-carboxamide] | I |  | 41% |
| O=C(Nc1ccnc(C(F)(F)F)c1)c1cn(CCO)c2ccc(F)cc12 [Example 12, 5-fluoro-1-(2-hydroxyethyl)-N-[2-(trifluoromethyl)pyridin-4-yl]-1H-indole-3-carboxamide] | I |  | 257% |
| Cn1cc(-c2ccc3c(c2)c(C(=O)Nc2ccnc(C(F)(F)F)c2)cn3C)cn1 [Example 11, 1-methyl-5-(1-methyl-1H-pyrazol-4-yl)-N-[2-(trifluoromethyl)pyridin-4-yl]-1H-indole-3-carboxamide] | I |  | 78% |
| CCn1cc(C(=O)Nc2cncc(F)c2)c2cc(F)ccc21 [Example 1, 1-ethyl-5-fluoro-N-(5-fluoropyridin-3-yl)-1H-indole-3-carboxamide] | I | 70% |  |
| Cn1cc(C(=O)Nc2ccnc(C(F)(F)F)c2)c2cc(C(F)(F)F)ccc21 [Example 9, 1-methyl-5-(trifluoromethyl)-N-[2-(trifluoromethyl)pyridin-4-yl]-1H-indole-3-carboxamide] | I |  | 83% |
| CC(C)n1cc(C(=O)Nc2cncc(F)c2)c2cc(F)ccc21 [Example 6, 5-fluoro-N-(5-fluoropyridin-3-yl)-1-(propan-2-yl)-1H-indole-3-carboxamide] | I |  | 374% |
| Cn1cc(C(=O)Nc2ccnc(C(F)(F)F)c2)c2cc(F)ccc21 [Example 5, 5-fluoro-1-methyl-N-[2-(trifluoromethyl)pyridin-4-yl]-1H-indole-3-carboxamide] | I | 78% | 326% |
| Cc1ccc2c(c1)c(C(=O)Nc1ccnc(C(F)(F)F)c1)cn2C [Example 7, 1,5-dimethyl-N-[2-(trifluoromethyl)pyridin-4-yl]-1H-indole-3-carboxamide] | I | 80% | 663% |
